Source: PMC4657098, “A Review of the Updated Pharmacophore for the Alpha 5 GABA(A) Benzodiazepine Receptor Model” (International Journal of Medicinal Chemistry, 2015)
Like-named read-outs stand apart in the source and are kept apart here.

Tests used:
[1] = target: T1, α5β3γ2 GABAA/BzR (Homo sapiens, UniProt P18507+P31644); test: Competition binding to HEK cell membranes, α5β3γ2; design: expressed in transfected cells
[2] = tested on: Bz BS of GABA(A) receptors; conditions: cited from earlier work
[3] = target: T2, α3β3γ2 GABAA/BzR (Homo sapiens, UniProt P18507+P34903); test: Competition binding to HEK cell membranes, α3β3γ2; design: expressed in transfected cells
[4] = target: T3, α6β3γ2 GABAA/BzR (Homo sapiens, UniProt P18507+Q16445); test: Competition binding to HEK cell membranes, α6β3γ2; design: expressed in transfected cells
[5] = target: T4, α2β3γ2 GABAA/BzR (Homo sapiens, UniProt P18507+P47869); test: Competition binding to HEK cell membranes, α2β3γ2; design: expressed in transfected cells
[6] = target: T5, α1β3γ2 GABAA/BzR (Homo sapiens, UniProt P14867+P18507); test: Competition binding to HEK cell membranes, α1β3γ2; design: expressed in transfected cells
[7] = target: T4, α2β3γ2 GABAA/BzR; design: expressed in transfected cells; host or cells: LTK cells (given for XLi-093 only); conditions: cited from earlier work
[8] = target: T3, α6β3γ2 GABAA/BzR; design: expressed in transfected cells; host or cells: LTK cells (given for XLi-093 only); conditions: cited from earlier work
[9] = target: T6, α4β3γ2 GABAA/BzR (Homo sapiens, UniProt P18507+P48169); conditions: read-out: Affinity Ki α4; cited from earlier work
T6 construct: expressed in transfected cells; host or cells: LTK cells (given for XLi-093 only)

[10] = target: T1, α5β3γ2 GABAA/BzR; design: expressed in transfected cells; host or cells: LTK cells (given for XLi-093 only); conditions: cited from earlier work
[11] = target: T5, α1β3γ2 GABAA/BzR; design: expressed in transfected cells; host or cells: LTK cells (given for XLi-093 only); conditions: cited from earlier work
[12] = target: T2, α3β3γ2 GABAA/BzR; design: expressed in transfected cells; host or cells: LTK cells (given for XLi-093 only); conditions: cited from earlier work
[13] = target: T6, α4β3γ2 GABAA/BzR; test: biochemical; type: binding

CCOC(=O)c1ncc2[nH]c3ccc(OCc4ccccc4)cc3c2c1COC [ZK 93423, 6-(benzyloxy)-4-(methoxymethyl)-β-carboline-3-carboxylic acid ethyl ester, reference compound]
Ki ([1]; Ki α5): 4.5 nM
modulation ([2]; Supplement Table 1): agonist
Ki ([3]; Ki α3): 6 nM
Ki ([4]; Ki α6): 1000 nM
Ki ([5]; Ki α2): 4.2 nM
Ki ([6]; Ki α1): 4.1 nM

O=C(OCC(F)(F)F)c1cc2c(cn1)[nH]c1ccc(-c3ccco3)cc12 [34(WYB27-1)]
Ki ([7]; read-out: Affinity Ki α2): 143 nM
Ki ([8]; read-out: Affinity Ki α6): 2000 nM
Ki [9]: 3000 nM
Ki ([10]; read-out: Affinity Ki α5): 127 nM
Ki ([11]; read-out: Affinity Ki α1): 26 nM
Ki ([12]; read-out: Affinity Ki α3): 117 nM

C[Si](C)(C)C#Cc1ccc2[nH]c3cnc(C(=O)OCC(F)(F)F)cc3c2c1 [WY-B-25]
Ki [13]: 2000 nM
Ki ([8]; Figure 33, αxβ3γ2, read-out: Affinity Ki α6): > 3000 nM
Ki ([1]; Ki α5): 263 nM
Ki ([3]; Ki α3): 66 nM
Ki ([4]; Ki α6): 2000 nM
Ki ([5]; Ki α2): 40 nM
Ki ([6]; Ki α1): 7.6 nM

CCCOc1ccc2[nH]c3cnc(C(=O)OCC)c(COC)c3c2c1 [6-PBC, 6-(propyloxy)-4-(methoxymethyl)-β-carboline-3-carboxylic acid ethyl ester]
Ki ([1]; Ki α5): 2.39 nM
modulation ([2]; Supplement Table 1): partial agonist
Ki ([3]; Ki α3): 2.2 nM
Ki ([4]; Ki α6): 1340 nM
Ki ([5]; Ki α2): 1.21 nM
Ki ([6]; Ki α1): 0.49 nM

CCOCc1ncn2c1CN(C)C(=O)c1cc(Cl)ccc1-2 [compound 6]
Ki ([7]; Figure 4, read-out: Ki α2): > 300 nM
Ki ([8]; Figure 4, read-out: Ki α6): > 300 nM
Ki ([10]; Figure 4, read-out: Ki α5): 82.7 nM
Ki ([11]; Figure 4, read-out: Ki α1): > 300 nM
Ki ([12]; Figure 4, read-out: Ki α3): > 300 nM

CCOC(=O)c1cc2c(cn1)[nH]c1ccccc12 [BCCE, reference compound]
modulation [2]: inverse agonist
Ki ([6]; read-out: Ki α1): 1.2 nM

Cc1nnc2n1-c1ccc(Cl)cc1C(c1ccccc1Cl)=NC2 [triazolam]
modulation ([2]; Supplement Table 1): agonist

O=C(OC(C(F)(F)F)C(F)(F)F)c1cc2c(cn1)[nH]c1ccc(I)cc12 [32(WY-B-08)]
Ki ([7]; read-out: Affinity Ki α2): 301 nM
Ki ([8]; read-out: Affinity Ki α6): 3000 nM
Ki [9]: 3000 nM
Ki ([10]; read-out: Affinity Ki α5): 681 nM
Ki ([11]; read-out: Affinity Ki α1): 78 nM
Ki ([12]; read-out: Affinity Ki α3): 131 nM

CCOC(=O)c1cc2c(cn1)[nH]c1ccc(I)cc12 [31(iodo-βCCE)]
Ki ([7]; read-out: Affinity Ki α2): 31 nM
Ki ([8]; read-out: Affinity Ki α6): 1000 nM
Ki [9]: 1000 nM
Ki ([10]; read-out: Affinity Ki α5): 286 nM
Ki ([11]; read-out: Affinity Ki α1): 4.8 nM
Ki ([12]; read-out: Affinity Ki α3): 34 nM

CC(C)(C)OC(=O)c1cc2c(cn1)[nH]c1ccc(I)cc12 [29(iodo-βCCt)]
Ki ([7]; read-out: Affinity Ki α2): 44.9 nM
Ki ([8]; read-out: Affinity Ki α6): > 4000 nM
Ki [9]: > 4000 nM
Ki ([10]; read-out: Affinity Ki α5): 65.3 nM
Ki ([11]; read-out: Affinity Ki α1): 14.4 nM
Ki ([12]; read-out: Affinity Ki α3): 123 nM

CC(C)(C)OC(=O)c1cc2c(cn1)[nH]c1ccc(F)cc12 [CM-A87]
Ki ([7]; read-out: Affinity Ki α2): 4.54 nM
Ki [13]: 1000 nM
Ki ([1]; Ki α5): 4.61 nM
Ki ([1]; read-out: Ki α5): 4.61 nM
Ki ([10]; read-out: Affinity Ki α5): 4.61 nM
Ki ([11]; read-out: Affinity Ki α1): 1.62 nM
Ki ([3]; Ki α3): 14.7 nM
Ki ([3]; read-out: Ki α3): 14.7 nM
Ki ([4]; Ki α6): 1000 nM
Ki ([5]; Ki α2): 4.54 nM
Ki ([5]; read-out: Ki α2): 4.54 nM
Ki ([12]; read-out: Affinity Ki α3): 14.7 nM
Ki ([6]; Ki α1): 1.62 nM
Ki ([6]; read-out: Ki α1): 1.62 nM

CCCC(=O)c1cc2c(cn1)[nH]c1ccc(F)cc12 [CM-A57]
Ki ([7]; read-out: Affinity Ki α2): 27 nM
Ki ([8]; read-out: Affinity Ki α6): > 2500 nM
Ki ([1]; read-out: Ki α5): 254 nM
Ki ([10]; read-out: Affinity Ki α5): 254 nM
Ki ([11]; read-out: Affinity Ki α1): 3.7 nM
Ki ([3]; read-out: Ki α3): 40 nM
Ki ([4]; read-out: Ki α6): 1000 nM
Ki ([5]; read-out: Ki α2): 27 nM
Ki ([12]; read-out: Affinity Ki α3): 40 nM
Ki ([6]; read-out: Ki α1): 3.7 nM

COC(=O)c1cc2c(cn1)[nH]c1ccccc12 [-CCM, methyl beta-carboline-3-carboxylate]
modulation ([2]; Supplement Table 1): inverse agonist

CN1C(=O)CN=C(c2ccccc2F)c2cc([N+](=O)[O-])ccc21 [FLUNITRAZEPAM, flunitrazepam]
modulation [2]: agonist

CN1Cc2c(CCl)ncn2-c2ccc(Cl)cc2C1=O [compound 5]
Ki ([7]; Figure 4, read-out: Ki α2): > 300 nM
Ki ([8]; Figure 4, read-out: Ki α6): > 300 nM
Ki ([10]; Figure 4, read-out: Ki α5): 28.5 nM
Ki ([11]; Figure 4, read-out: Ki α1): > 300 nM
Ki ([12]; Figure 4, read-out: Ki α3): > 300 nM

CC(C)(C)OC(=O)c1cc2c(cn1)[nH]c1ccc(-c3cccs3)cc12 [35(WYS12)]
Ki ([7]; read-out: Affinity Ki α2): 166 nM
Ki ([8]; read-out: Affinity Ki α6): 5000 nM
Ki ([10]; read-out: Affinity Ki α5): 2860 nM
Ki ([11]; read-out: Affinity Ki α1): 37 nM
Ki ([12]; read-out: Affinity Ki α3): 314 nM
